Assay [1] concerns human lung cancer strain NCI-H441. The assay can be described thus: cells. Conditions: NCI-H441, 96 h, read-out: NCI-H441 IC50 (nM), NCI-H441 cell proliferation, 4 days, CellTiter-Glo.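 Further: cell proliferation inhibition after four days measured by CellTiter-Glo.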
The target in assay [2] is GDP-bound NRAS wild-type protein (Homo sapiens, UniProt P01111). The assay can be described thus: Binding to NRAS by surface plasmon resonance (SPR), Single Cycle Kinetics. Conditions: ratio of KD for GDP-bound NRAS wild-type protein to KD for KRAS, SPR.
Sequence of GDP-bound NRAS wild-type protein (P01111 whole entry): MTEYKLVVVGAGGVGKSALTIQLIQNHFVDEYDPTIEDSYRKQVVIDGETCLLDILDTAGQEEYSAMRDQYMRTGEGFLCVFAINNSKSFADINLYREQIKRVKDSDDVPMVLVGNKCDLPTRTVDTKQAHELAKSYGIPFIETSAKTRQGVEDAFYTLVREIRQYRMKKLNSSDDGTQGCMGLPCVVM
Assay [3] concerns the target GDP-bound KRAS wild-type protein (Homo sapiens, UniProt P01116). The assay can be described thus: Binding to KRAS by surface plasmon resonance (SPR), Single Cycle Kinetics. Conditions: SPR, Single Cycle Kinetics, GDP-bound KRAS wild-type protein; read-out: KRAS KD.
The target in assay [4] is GDP-bound HRAS wild-type protein (Homo sapiens, UniProt P01112). As to the kind of experiment: Binding to HRAS by surface plasmon resonance (SPR), Single Cycle Kinetics. Conditions: ratio of KD for GDP-bound HRAS wild-type protein to KD for KRAS, SPR.
Sequence of GDP-bound HRAS wild-type protein (P01112 whole entry): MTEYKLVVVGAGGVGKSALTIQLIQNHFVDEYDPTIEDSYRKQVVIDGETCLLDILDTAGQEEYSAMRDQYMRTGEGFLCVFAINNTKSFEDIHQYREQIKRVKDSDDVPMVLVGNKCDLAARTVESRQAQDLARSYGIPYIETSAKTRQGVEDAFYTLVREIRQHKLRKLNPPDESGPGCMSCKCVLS

Sequence of GDP-bound KRAS wild-type protein (P01116 whole entry): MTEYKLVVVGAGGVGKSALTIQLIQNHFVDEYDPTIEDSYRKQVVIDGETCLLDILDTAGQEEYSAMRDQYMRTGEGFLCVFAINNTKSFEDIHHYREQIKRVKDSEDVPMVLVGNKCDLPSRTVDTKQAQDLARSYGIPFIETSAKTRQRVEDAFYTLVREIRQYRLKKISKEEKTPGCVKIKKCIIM

As for `CCCOC[C@H]1C(=O)N[C@@H]([C@@H](C)CC)C(=O)N(C)CC(=O)N(C)[C@H]2C/C=C\CCN(C2=O)[C@@H](Cc2ccc(C(F)(F)F)cc2)C(=O)N(C)CC(=O)N[C@@H](CCc2cc(F)c(C(F)(F)F)c(F)c2)C(=O)N2C[C@H](F)C[C@H]2C(=O)NC2(CC(C)(C)C2)C(=O)N(C)[C@@H](C2CCCC2)C(=O)N(C)[C@H](C(=O)N(C)CC)CC(=O)N1C` [PP1697], in assay [1], the IC50 was 3.6 nM. Also, in assay [2], the “NRAS/KRAS (KD ratio)” value is “A (a compound having 10 or more and less than 20 is denoted as A)”. The Kd in assay [3] came out at 0.047 nM. In addition, in assay [4], the “HRAS/KRAS (KD ratio)” value was “A (a compound having 10 or more and less than 20 is denoted as A)”.
Take `CCCN(C)C(=O)[C@@H]1CC(=O)N(C)[C@@H](COC)C(=O)N[C@@H]([C@@H](C)CC)C(=O)N(C)CC(=O)N(C)[C@H]2C/C=C\CCN(C2=O)[C@@H](Cc2ccc(C(F)(F)F)cc2)C(=O)N(C)CC(=O)N[C@@H](CCc2cc(F)c(C(F)(F)F)c(F)c2)C(=O)N2C[C@H](OCC)C[C@H]2C(=O)NC2(CCC2)C(=O)N(C)[C@@H](C2CCCC2)C(=O)N1C` [PP1706]: the IC50 in assay [1] is 6.7 nM. Also, the “NRAS/KRAS (KD ratio)” value in assay [2] is “A (a compound having 10 or more and less than 20 is denoted as A)”. Besides, in assay [3], the Kd came to 0.075 nM. For the same compound, in assay [4], the “HRAS/KRAS (KD ratio)” value was “A (a compound having 10 or more and less than 20 is denoted as A)”.
`CC[C@H](C)[C@@H]1NC(=O)[C@H](CC)N(C)C(=O)C[C@@H](C(=O)N(C)C)N(C)C(=O)[C@H](C2CCCC2)N(C)C(=O)C2(CC(C)(C)C2)NC(=O)[C@@H]2C[C@H](C)CN2C(=O)[C@H](CCc2cc(F)c(C(F)(F)F)c(F)c2)NC(=O)CN(C)C(=O)[C@H](Cc2ccc(C)cc2)N2CC/C=C\C[C@@H](C2=O)N(C)C(=O)CN(C)C1=O` [PP1856]: the IC50 in assay [1] was 1.4 nM. Further, the “NRAS/KRAS (KD ratio)” value in assay [2] is “A (a compound having 10 or more and less than 20 is denoted as A)”. The Kd in assay [3] turned out to be 0.11 nM. For the same compound, the “HRAS/KRAS (KD ratio)” value in assay [4] is “A (a compound having 10 or more and less than 20 is denoted as A)”.
Consider `CCO[C@@H]1C[C@H]2C(=O)NC3(CC(C)(C)C3)C(=O)N(C)[C@@H](C3CCCC3)C(=O)N(C)[C@H](C(=O)N(C)CC)CC(=O)N(C)[C@@H](C(C)C)C(=O)N[C@@H]([C@@H](C)CC)C(=O)N(C)CC(=O)N(C)[C@H]3C/C=C\CCN(C3=O)[C@@H](Cc3ccc(C(F)(F)F)cc3)C(=O)N(C)CC(=O)N[C@@H](CCc3ccc(C(F)(F)F)c(OC)c3)C(=O)N2C1` [PP1977], for which the IC50 in assay [1] came to 20.2 nM. For the same compound, in assay [2], the “NRAS/KRAS (KD ratio)” value is “AA (a compound having 20 or more is denoted as AA)”. Besides, in assay [3], the Kd turned out to be 0.15 nM. In addition, the “HRAS/KRAS (KD ratio)” value in assay [4] was “A (a compound having 10 or more and less than 20 is denoted as A)”.
As to `CCCOC[C@H]1C(=O)N[C@@H]([C@@H](C)CC)C(=O)N(C)CC(=O)N(C)[C@H]2C/C=C\CCN(C2=O)[C@@H](Cc2ccc(C(F)(F)F)cc2)C(=O)N(C)CC(=O)N[C@@H](CCc2cc(F)c(C(F)(F)F)c(F)c2)C(=O)N2C[C@H](OCC)C[C@H]2C(=O)NC2(CC(C)(C)C2)C(=O)N(C)[C@@H](C2CCCC2)C(=O)N(C)[C@H](C(=O)N(C)CCC)CC(=O)N1C` [PP1673], in assay [1], the IC50 worked out at 6 nM. For the same compound, the “NRAS/KRAS (KD ratio)” value in assay [2] was “A (a compound having 10 or more and less than 20 is denoted as A)”. For the same compound, in assay [3], the Kd was 0.16 nM. Further, in assay [4], the “HRAS/KRAS (KD ratio)” value was “A (a compound having 10 or more and less than 20 is denoted as A)”.
Consider `CC[C@H](C)[C@@H]1NC(=O)[C@H](CC2CCC2)N(C)C(=O)C[C@@H](C(=O)N(C)C)N(C)C(=O)[C@H](C2CCCC2)N(C)C(=O)C2(CCC2)N(C)C(=O)[C@@H]2CCCN2C(=O)[C@H](CCc2cc(F)c(C(F)(F)F)c(F)c2)NC(=O)CN(C)C(=O)[C@H](Cc2ccc(C)cc2)N2CC/C=C\C[C@@H](C2=O)N(C)C(=O)CN(C)C1=O` [PP1802], for which, in assay [1], the IC50 is 5.8 nM. Further, in assay [2], the “NRAS/KRAS (KD ratio)” value was “A (a compound having 10 or more and less than 20 is denoted as A)”. The Kd in assay [3] is 0.082 nM. In assay [4], the “HRAS/KRAS (KD ratio)” value is “B (a compound having 3 or more and less than 10 is denoted as B)”.
Consider `CCCN(C)C(=O)[C@@H]1CC(=O)N(C)[C@@H](COC)C(=O)N[C@@H]([C@@H](C)CC)C(=O)N(C)CC(=O)N(C)[C@H]2C/C=C\CCN(C2=O)[C@@H](Cc2ccc(C(F)(F)F)cc2)C(=O)N(C)CC(=O)N[C@@H](CCc2cc(F)c(C(F)(F)F)c(F)c2)C(=O)N2C[C@H](OCC)C[C@H]2C(=O)NC2(CC(F)(F)C2)C(=O)N(C)[C@@H](C2CCCC2)C(=O)N1C` [PP1743], for which, in assay [1], the IC50 is 5.1 nM. In addition, in assay [2], the “NRAS/KRAS (KD ratio)” value is “AA (a compound having 20 or more is denoted as AA)”. Besides, the Kd in assay [3] amounted to 0.076 nM. In addition, the “HRAS/KRAS (KD ratio)” value in assay [4] is “A (a compound having 10 or more and less than 20 is denoted as A)”.
Consider `CCO[C@@H]1C[C@H]2C(=O)NC3(CC(C)(C)C3)C(=O)N(C)[C@@H](C3CCCC3)C(=O)N(C)[C@H](C(=O)N(C)C)CC(=O)N(C)[C@@H](CC3CCC3)C(=O)N[C@@H]([C@@H](C)CC)C(=O)N(C)CC(=O)N(C)[C@H]3C/C=C\CCN(C3=O)[C@@H](Cc3ccc(C(F)(F)F)cc3)C(=O)N(C)CC(=O)N[C@@H](CCc3ccc(C(F)(F)F)c(Cl)c3)C(=O)N2C1` [PP1752], for which, in assay [1], the IC50 came out at 5.8 nM. In addition, the “NRAS/KRAS (KD ratio)” value in assay [2] is “A (a compound having 10 or more and less than 20 is denoted as A)”. For the same compound, the dissociation constant (Kd) in assay [3] came out at 0.085 nM. In addition, the “HRAS/KRAS (KD ratio)” value in assay [4] is “A (a compound having 10 or more and less than 20 is denoted as A)”.
Take `CCC[C@H]1C(=O)N[C@@H]([C@@H](C)CC)C(=O)N(C)CC(=O)N(C)[C@H]2C/C=C\CCN(C2=O)[C@@H](Cc2ccc(C)cc2)C(=O)N(C)CC(=O)N[C@@H](CCc2ccc(C(F)(F)F)c(OC)c2)C(=O)N2C[C@@H](C)C[C@H]2C(=O)NC2(CC(C)(C)C2)C(=O)N(C)[C@@H](C2CCCC2)C(=O)N(C)[C@H](C(=O)N(C)CC)CC(=O)N1C` [PP1889]: the IC50 in assay [1] was 12.5 nM. For the same compound, the “NRAS/KRAS (KD ratio)” value in assay [2] was “A (a compound having 10 or more and less than 20 is denoted as A)”. In assay [3], the Kd is 0.21 nM. Also, the “HRAS/KRAS (KD ratio)” value in assay [4] is “B (a compound having 3 or more and less than 10 is denoted as B)”.
For `CC[C@H](C)[C@@H]1NC(=O)[C@H](CC(F)(F)F)N(C)C(=O)C[C@@H](C(=O)N(C)C)N(C)C(=O)[C@H](C2CCCC2)N(C)C(=O)C2(CC(C)(C)C2)NC(=O)[C@@H]2CCCN2C(=O)[C@H](CCc2cc(F)c(C(F)(F)F)c(F)c2)NC(=O)CN(C)C(=O)[C@H](Cc2ccc(C(F)(F)F)cc2)N2CC/C=C\C[C@@H](C2=O)N(C)C(=O)CN(C)C1=O` [PP1722], the IC50 in assay [1] was 1.8 nM. For the same compound, the “NRAS/KRAS (KD ratio)” value in assay [2] is listed as “AA (a compound having 20 or more is denoted as AA)”. Further, the Kd in assay [3] worked out at 0.06 nM. Moreover, the “HRAS/KRAS (KD ratio)” value in assay [4] was “A (a compound having 10 or more and less than 20 is denoted as A)”.
As for `CC[C@H](C)[C@@H]1NC(=O)[C@H](C2CC2)N(C)C(=O)C[C@@H](C(=O)N(C)C)N(C)C(=O)[C@H](C2CCCC2)N(C)C(=O)C2(CCCC2)N(C)C(=O)[C@@H]2CCCN2C(=O)[C@H](CCc2cc(F)c(C(F)(F)F)c(F)c2)NC(=O)CN(C)C(=O)[C@H](Cc2ccc(C)cc2)N2CC/C=C\C[C@@H](C2=O)N(C)C(=O)CN(C)C1=O` [PP1809], the IC50 in assay [1] came to 22.4 nM. Besides, in assay [2], the “NRAS/KRAS (KD ratio)” value is “A (a compound having 10 or more and less than 20 is denoted as A)”. Also, in assay [3], the Kd was determined as 0.12 nM. Moreover, the “HRAS/KRAS (KD ratio)” value in assay [4] is “B (a compound having 3 or more and less than 10 is denoted as B)”.
With `CC[C@H](C)[C@@H]1NC(=O)[C@H](CC(C)C)N(C)C(=O)C[C@@H](C(=O)N(C)C)N(C)C(=O)[C@H](C2CCCC2)N(C)C(=O)C2(CC(C)(C)C2)NC(=O)[C@@H]2CCCN2C(=O)[C@H](CCc2cc(F)c(C(F)(F)F)c(F)c2)NC(=O)CN(C)C(=O)[C@H](Cc2ccc(C(F)(F)F)cc2)N2CC/C=C\C[C@@H](C2=O)N(C)C(=O)CN(C)C1=O` [PP1727], the IC50 in assay [1] was determined as 4 nM. Further, the “NRAS/KRAS (KD ratio)” value in assay [2] was “A (a compound having 10 or more and less than 20 is denoted as A)”. In addition, the Kd in assay [3] was 0.13 nM. Further, the “HRAS/KRAS (KD ratio)” value in assay [4] is “A (a compound having 10 or more and less than 20 is denoted as A)”.
`CCC[C@H]1C(=O)N[C@@H]([C@@H](C)CC)C(=O)N(C)CC(=O)N(C)[C@H]2C/C=C\CCN(C2=O)[C@@H](Cc2ccc(C)cc2)C(=O)N(C)CC(=O)N[C@@H](CCc2cc(F)c(C(F)(F)F)c(F)c2)C(=O)N2C[C@H](OCC)C[C@H]2C(=O)N(C)C2(CCC2)C(=O)N(C)[C@@H](C2CCCC2)C(=O)N(C)[C@H](C(=O)N(C)C)CC(=O)N1C` [PP1793]: in assay [1], the IC50 was found to be 2.4 nM. Further, the “NRAS/KRAS (KD ratio)” value in assay [2] is “A (a compound having 10 or more and less than 20 is denoted as A)”. Also, the Kd in assay [3] was found to be 0.023 nM. The “HRAS/KRAS (KD ratio)” value in assay [4] is “B (a compound having 3 or more and less than 10 is denoted as B)”.
Take `CCOC[C@H]1C(=O)N[C@@H]([C@@H](C)CC)C(=O)N(C)CC(=O)N(C)[C@H]2C/C=C\CCN(C2=O)[C@@H](Cc2ccc(C(F)(F)F)cc2)C(=O)N(C)CC(=O)N[C@@H](CCc2ccc(C(F)(F)F)c(OC)c2)C(=O)N2C[C@H](OCC)C[C@H]2C(=O)NC2(CC(C)(C)C2)C(=O)N(C)[C@@H](C2CCCC2)C(=O)N(C)[C@H](C(=O)N(C)CC)CC(=O)N1C` [PP2014]: the IC50 in assay [1] is 6.9 nM. In addition, in assay [2], the “NRAS/KRAS (KD ratio)” value is “A (a compound having 10 or more and less than 20 is denoted as A)”. In addition, in assay [3], the Kd turned out to be 0.093 nM. Also, the “HRAS/KRAS (KD ratio)” value in assay [4] is “A (a compound having 10 or more and less than 20 is denoted as A)”.

The values above are taken from patent publication US20240158446A1, “CYCLIC COMPOUND HAVING SELECTIVE INHIBITORY ACTION ON KRAS OVER HRAS AND NRAS” (CHUGAI SEIYAKU KABUSHIKI KAISHA, priority 2021, published 2024).
